Measurements published in patent publication US4783462A, “3(2H)pyridazinone, and anti-allergic agent containing it” (Nissan Chemical Industries Ltd., priority 1985, dated 1988).

Experiments:
[1] = system: LTC4; assay: Antagonism in isolated guinea-pig trachea, Test method (i) (Table 3, given as LTC4 antagonism); assay type: cell-based; conditions: test compound 10^-5 g/ml, given as LTC4 antagonisms, 5 min; for inhibition at 10 µg/mL: Cavia porcellus
Method: (§1) (i) LTC4 and LTD4 antagonisms in guinea-pig trachea
(§2) Antagonisms for LTC4 and LTD4 were determined in isolated guinea-pig trachea prepared as spiral strip. Tracheal preparations were suspended under 1 g tension in 10 ml organ baths and they were incubated for 1 hr prior to use. Contractile responses to LTC4 (2×10^-8 g/ml) and LTD4 (2×10^-8 g/ml) were obtained after the maximal response to histamine (10^-4 M). Test compounds dissolved in 100% dimethyl sulfoxide were added to the organ baths (final concentration of 10^-5 g/ml or 10^-6 g/ml) 5 min prior to LTC4 and LTD4 addition, and then contractile responses to LTC4 and LTD4 were compared with those of control which was obtained from a paired trachea in the absence of test compounds. LTC4 - and LTD4 -induced contractions were expressed as a percentage of the maximal response to histamine. The antagonism was determined as follows:
(§3) Antagonism (%)=(1.0-% contraction in test/% contraction in […]

[2] = system: LTD4; assay: LTD4 antagonism in isolated guinea-pig trachea with indomethacin, Test method (ii) (Table 4); assay type: cell-based; conditions: Cavia porcellus, 0.5 h, LTD4 2×10^-8 g/ml, test compound 10^-6 g/ml, 30 min prior, 5 μmol indomethacin
Method: (ii) LTD4 antagonism in guinea-pig trachea
Antagonism for LTD4 was determined in isolated guinea-pig trachea prepared as spiral strip. Tracheal preparations were suspended under 1 g tension in 10 ml organ baths containing 5 μmol of indomethacin and they were incuated for 1 hr prior to use. Contractile responses to LTD4 (2×10^-8 g/ml) were obtained after the maximal response to histamine (10^-4 M). Test compounds dissolved in 100% dimethyl sulfoxide were added to the organ baths (final concentration of 10^-6 g/ml) 30 min prior to LTD4 addition, and then contractile responses to LTD4 were compared with those of control which was obtained from a paired trachea in the absence of test compounds. LTD4 -induced contractions were expressed as a percentage of the maximal response to histamine. The antagonism was determined as follows:
as §3

[3] = system: anaphylactic bronchoconstriction in passively sensitized guinea-pig; assay: Effect on anaphylactic bronchoconstriction in passively sensitized guinea-pig; assay type: in vivo; conditions: 2 mg/kg i.v.
Method: (iii) Effect on anaphylactic bronchoconstriction in passively sensitized guinea-pig
Male guinea-pigs (350-450 g) were passively sensitized with intravenous (i.v.) injection of 0.125 ml rabbit anti-EA (egg albumin) serum (Cappel Laboratories) 1 day preceding the experiment. […] Sensitized guinea-pigs were anaesthetized with intraperitoneal injection of urethane (1.5 g/kg). The right jugular vein was cannulated for the administration of the all agents and trachea was cannulated to record total pulmonary resistance. Guinea-pigs were artificially ventilated by a small animal respirator (Shinano, Model SN-480-7) set at a stroke volume of 5 ml and a rate of 50 breaths per min. […] The increase in air overflow volume was expressed as a percentage of the maximum bronchoconstriction obtained by clamping off the trachea. Following surgical preparation, the animals were pretreated with indomethacin (1.0 mg/kg, 10 min), pyrilamine (2 mg/kg, 6 min) and propranolol (0.1 mg/kg, 5 min) prior to the EA challenge (0.1 or 10 mg/kg). All test compounds, 2 mg/kg in 3% Tween 80 or 3% PEG-400, were administered 1 min before the EA challenge. Inhibition (%) of bronchoconstriction was determined as follows: Inhibition (%)=(1.0%-maximum bronchoconstriction in test/% maximum bronchoconstriction in control)×100. The maximum bronchoconstriction was obtained within 20 min after the EA challenge.
In the Table, the dose of EA was 10 mg/kg, and each compound was dissolved or suspended in 3% Tween 80.
The dose of EA was 0.1 mg/kg.

[4] = system: ddY strain male mice; assay: Acute toxicity test, Test method-(2), intraperitoneal; assay type: in vivo; conditions: 7 days
Method: The lethal ratio was determined in ddY strain male mice (4 weeks old) at 7 days after the intraperitoneal injection of test compounds.

[5] = system: LTD4; assay: LTD4 antagonism in isolated guinea-pig trachea, Test method (i) (Table 4, values with asterisk); assay type: cell-based; conditions: Cavia porcellus, 5 min, test compound 10^-6 g/ml, 5 min prior
Method: as §1, §2, §3

[6] = Table 5-(2), EA 0.1 mg/kg, Tween 80
[7] = Table 5-(2), EA 0.1 mg/kg, PEG-400
[8] = Table 5-(1), EA 10 mg/kg, 3% Tween 80

CCCc1cc(C(=O)O)ccc1OCCCNc1cnn(C(C)C)c(=O)c1Cl [Compound No. 41, 4-chloro-5-[3-(2-n-propyl-4-carboxyphenoxy)propylamino]-2-i-propyl-3(2H)pyridazinone]
Antagonism (%) [1]: 100% | inhibition at 1 µg/mL [2]: 82% | Inhibition (%) [3, 6]: 31% | Lethal ratio (Death number/Experimental number) ([4]; 200 mg/kg intraperitoneal): 0/2

CCCc1cc(C(N)=O)ccc1OCCCNc1cnn(C(C)C)c(=O)c1Cl [Compound No. 42, 4-Chloro-5-[3-(2-n-propyl-4-carbamoylphenoxy)propylamino]-2-i-propyl-3(2H)pyridazinone]
inhibition at 10 µg/mL [1]: 95% | inhibition at 1 µg/mL [2]: 76% | Inhibition (%) [3, 7]: 31% | Lethal ratio (Death number/Experimental number) ([4]; 200 mg/kg intraperitoneal): 0/2 | Lethal ratio (Death number/Experimental number) ([4]; 400 mg/kg intraperitoneal): 0/1

CCCc1cc(C(=O)OC)ccc1OCCCNc1cnn(C(C)C)c(=O)c1Cl [Compound No. 44, 4-choloro-5-[3-(2-n-propyl-4-methoxycarbonylphenoxy)propylamino]-2-i-propyl-3(2H)pyridazinone]
inhibition at 10 µg/mL [1]: 90% | inhibition at 1 µg/mL [2]: 63% | Lethal ratio (Death number/Experimental number) ([4]; 200 mg/kg intraperitoneal): 0/1 | Lethal ratio (Death number/Experimental number) ([4]; 400 mg/kg intraperitoneal): 0/1

CCCc1cc(C(=O)OCC)ccc1OCCCNc1cnn(C(C)C)c(=O)c1Cl [Compound No. 64, 4-chloro-5-[3-(2-n-propyl-4-ethoxycarbonylphenoxy)propylamino]-2-i-propyl-3(2H)pyridazinone]
inhibition at 10 µg/mL [1]: 87% | Inhibition (%) [3, 6]: 56%

CCCc1cc(C(=O)O)ccc1OCCCNc1cnn(C(C)C)c(=O)c1Cl [Compound No. 67]
inhibition at 10 µg/mL [1]: 99% | Inhibition (%) [3, 6]: 62%

CCc1cc(C#N)ccc1OCCCNc1cnn(C(C)C)c(=O)c1Cl [Compound No. 98]
inhibition at 10 µg/mL [1]: 89% | inhibition at 1 µg/mL [2]: 80%

CCCCc1cc(C(=O)O)ccc1OCCCNc1cnn(C(C)C)c(=O)c1Cl [Compound No. 112, 4-chloro-5-[3-(2-n-butyl-4-carboxyphenoxy)propylamino]-2-i-propyl-3(2H) pyridazinone]
inhibition at 10 µg/mL [1]: 100% | inhibition at 1 µg/mL [5]: 62%

CCCCc1cc(C(N)=O)ccc1OCCCNc1cnn(C(C)C)c(=O)c1Cl [Compound No. 114, 4-Chloro-5-[3-(2-n-butyl-4-carbamoylphenoxy)propylamino]-2-i-propyl-3-(2H)pyridazinone]
inhibition at 10 µg/mL [1]: 89% | inhibition at 1 µg/mL [5]: 66%

CCCCc1cc(C(=O)O)ccc1OCCCNc1cnn(C(C)C)c(=O)c1Br [Compound No. 127]
inhibition at 1 µg/mL [5]: 91%

CCCc1cc(C(=O)OC)ccc1OCC(=O)CNc1cnn(C(C)C)c(=O)c1Cl [Compound No. 161, 4-Chloro-5-[3-(2-n-propyl-4-methoxycarbonylphenoxy)-2-oxopropylamino]-2-i-propyl-3(2H)pyridazinone]
inhibition at 10 µg/mL [1]: 71% | Inhibition (%) [3, 6]: 20%

COc1cccc(OCCCOc2cnn(C(C)(C)C)c(=O)c2Cl)c1 [compound 27]
inhibition at 10 µg/mL [1]: 65% | Inhibition (%) [3, 8]: 23% | Lethal ratio (Death number/Experimental number) ([4]; 100 mg/kg intraperitoneal): 0/2 | Lethal ratio (Death number/Experimental number) ([4]; 200 mg/kg intraperitoneal): 0/2

CCn1ncc(OCCCOc2cccc(OC)c2)c(Cl)c1=O [compound 28]
inhibition at 10 µg/mL [1]: 61% | Inhibition (%) [3, 8]: 17% | Lethal ratio (Death number/Experimental number) ([4]; 200 mg/kg intraperitoneal): 0/2 | Lethal ratio (Death number/Experimental number) ([4]; 400 mg/kg intraperitoneal): 0/1

CCCc1cc(C(=O)OC)ccc1OCCCNc1cnn(C)c(=O)c1Cl [compound 43]
inhibition at 10 µg/mL [1]: 63% | Inhibition (%) [3, 8]: 24%

CCCc1cc(C#N)ccc1OCCCNc1cnn(CC)c(=O)c1Cl [compound 47]
inhibition at 10 µg/mL [1]: 99% | Inhibition (%) [3, 8]: 28% | Lethal ratio (Death number/Experimental number) ([4]; 200 mg/kg intraperitoneal): 0/2 | Lethal ratio (Death number/Experimental number) ([4]; 400 mg/kg intraperitoneal): 0/2

CCOc1ccccc1OCCCNc1cnn(CC)c(=O)c1Cl [compound 51]
inhibition at 10 µg/mL [1]: 82% | Inhibition (%) [3, 8]: 15%

COc1ccc(CCNc2cnn(C(C)C)c(=O)c2Cl)cc1 [compound 55]
inhibition at 10 µg/mL [1]: 72% | Inhibition (%) [3, 8]: 26%

CCCc1cc(C#N)ccc1OCCCNc1cnn(C(C)C)c(=O)c1Cl [compound 60]
inhibition at 10 µg/mL [1]: 98% | Inhibition (%) [3, 8]: 15%

CCCc1cc(C#N)ccc1OCCCOc1cnn(CC)c(=O)c1Cl [compound 65]
inhibition at 10 µg/mL [1]: 98% | Inhibition (%) [3, 6]: 27%

CCOc1ccccc1OCCCNc1cnn(C(C)C)c(=O)c1Cl [compound 71]
inhibition at 10 µg/mL [1]: 88% | Inhibition (%) [3, 6]: 26%

CCCc1cc(C(=O)O)ccc1OCCCN(C)c1cnn(C(C)C)c(=O)c1Cl [compound 74]
inhibition at 10 µg/mL [1]: 73% | Inhibition (%) [3, 6]: 50%

CCCc1cc(C(=O)OC)ccc1OCCCOc1cnn(C(C)C)c(=O)c1Cl [compound 85]
inhibition at 10 µg/mL [1]: 78% | Inhibition (%) [3, 6]: 23%

CCc1cc(C(N)=O)ccc1OCCCNc1cnn(C(C)C)c(=O)c1Cl [compound 102]
inhibition at 10 µg/mL [1]: 93% | Inhibition (%) [3, 7]: 73%

CCn1ncc(NCCCOc2ccc(C(=O)OC)cc2C(C)C)c(Cl)c1=O [compound 103]
inhibition at 10 µg/mL [1]: 93% | Inhibition (%) [3, 7]: 69%

CCCc1cc(OC)ccc1OCCCNc1cnn(C(C)C)c(=O)c1Cl [compound 105]
inhibition at 10 µg/mL [1]: 89% | inhibition at 1 µg/mL [2]: 52%

CCCc1cc(O)ccc1OCCCNc1cnn(C(C)C)c(=O)c1Cl [compound 109]
inhibition at 10 µg/mL [1]: 99% | inhibition at 1 µg/mL [2]: 69%

CCCCc1cc(C(=O)OC)ccc1OCCCNc1cnn(CC)c(=O)c1Cl [compound 111]
inhibition at 10 µg/mL [1]: 87% | inhibition at 1 µg/mL [2]: 79%

CCCCc1cc(C(=O)O)ccc1OCCCNc1cnn(CC)c(=O)c1Cl [compound 113]
inhibition at 10 µg/mL [1]: 100% | inhibition at 1 µg/mL [2]: 54%

CCCCc1cc(C(N)=O)ccc1OCCCNc1cnn(CC)c(=O)c1Cl [compound 115]
inhibition at 10 µg/mL [1]: 94% | inhibition at 1 µg/mL [2]: 61%

CCCc1cc(C#N)ccc1OCCCNc1cnn(C(C)C)c(=O)c1Br [compound 120]
inhibition at 1 µg/mL [5]: 82%

CCCc1cc(C(N)=O)ccc1OCCCNc1cnn(CC)c(=O)c1Br [compound 121]
inhibition at 1 µg/mL [5]: 43%

C=CCc1cc(C#N)ccc1OCCCNc1cnn(C(C)C)c(=O)c1Br [compound 123]
inhibition at 1 µg/mL [5]: 65%

CCCc1cc(C#N)ccc1OCCCNc1cnn(C(C)(C)C)c(=O)c1CCC [compound 128]
inhibition at 1 µg/mL [5]: 17%

CCCc1cc(C(=O)OC)ccc1OCCCNc1cn[nH]c(=O)c1CCC [compound 131]
inhibition at 1 µg/mL [5]: 33%

CCCc1cc(C(=O)O)ccc1OCCCNc1cn[nH]c(=O)c1CCC [compound 132]
inhibition at 1 µg/mL [5]: 26%

CCCc1cc(C(=O)OC)ccc1OCCCNc1cnn(CC)c(=O)c1CCC [compound 133]
inhibition at 1 µg/mL [5]: 27%

CCCc1cc(C(=O)OC)ccc1OCC(CNc1cnn(C(C)C)c(=O)c1Cl)OC (centres unmarked) [compound 162]
inhibition at 10 µg/mL [1]: 81% | Inhibition (%) [3, 6]: 49%

CCCc1cc(C(=O)O)ccc1OCC(CNc1cnn(C(C)C)c(=O)c1Cl)OC (centres unmarked) [compound 163]
inhibition at 10 µg/mL [1]: 74% | Inhibition (%) [3, 6]: 32%

CCCc1cc(C(=O)OC)ccc1OCC(CN(C)c1cnn(C(C)C)c(=O)c1Cl)OC (centres unmarked) [compound 164]
inhibition at 10 µg/mL [1]: 71% | Inhibition (%) [3, 6]: 40%

CCCCCc1cc(C(=O)O)ccc1OCCCNc1cnn(CC)c(=O)c1Br [compound 205]
inhibition at 1 µg/mL [2]: 96%

CCC(C)c1cc(C(=O)O)ccc1OCCCNc1cnn(CC)c(=O)c1Br (centres unmarked) [compound 218]
inhibition at 1 µg/mL [2]: 84%
